# Test results published in patent US20250388604A1, “Compounds and Their Use as PDE4 Activators” (Mironid Limited, priority 2022, published 2025).
# Tested on: m-IMCD3 cells
# Assay: Inhibition of PGE2-stimulated in vitro cyst formation in m-IMCD3 cells
# Assay type: cell-based, mouse
# Conditions: Mus musculus, mIMCD3, 144 h, 3 μM; mean cyst area, 100% for (DMSO + PGE2) and 0% for DMSO control; 6 days of culture; read-out: % Cyst area after incubation with 3 μM test compound
# How it was run: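 m-IMCD3 cells embedded in collagen I/Matrigel 3D culture; 18–24 h after plating, compound (0.1% DMSO final) plus PGE2 (100 nM final) added, replenished after 2 or 3 days. After 6 days, z-stack imaging gave mean cyst area, normalized to DMSO+PGE2 (100%) and DMSO (0%).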
row,SMILES,activity at 3 µM
1,"COC(C(=O)N1CCc2nc(N3C4CCC3CNC4)sc2C1)C1CCCC1 (centres unmarked) [Example 157, 1-(2-(3,8-diazabicyclo[3.2.1]octan-8-yl)-6,7-dihydrothiazolo[5,4-c]pyridin-5(4H)-yl)-2-cyclopentyl-2-methoxyethan-1-one]",17%
2,"O=C(CC12CCC(CC1)C2)N1CCc2nc(N3C4CCC3CNC4)sc2C1 [Example 160, 1-(2-(3,8-diazabicyclo[3.2.1]octan-8-yl)-6,7-dihydrothiazolo[5,4-c]pyridin-5(4H)-yl)-2-(bicyclo[2.2.1]heptan-1-yl)ethan-1-one]",-2%
3,"CC(C)C(C)(C)C(=O)N1CCc2nc(N3C4CCC3CNC4)sc2C1 [Example 161, 1-(2-(3,8-diazabicyclo[3.2.1]octan-8-yl)-6,7-dihydrothiazolo[5,4-c]pyridin-5(4H)-yl)-2,2,3-trimethylbutan-1-one]",-3%
4,"O=C(C1CC12CCCC2)N1CCc2nc(N3C4CCC3CNC4)sc2C1 (centres unmarked) [Example 162, (2-(3,8-diazabicyclo[3.2.1]octan-8-yl)-6,7-dihydrothiazolo[5,4-c]pyridin-5(4H)-yl)(spiro[2.4]heptan-1-yl)methanone]",14%
5,"O=C(COc1ccccc1OC(F)(F)F)N1CCc2nc(N3C4CCC3CNC4)sc2C1 [Example 164, 1-(2-(3,8-diazabicyclo[3.2.1]octan-8-yl)-6,7-dihydrothiazolo[5,4-c]pyridin-5(4H)-yl)-2-(2-(trifluoromethoxy)phenoxy)ethan-1-one]",-7%
6,"O=C(Cc1ccc(F)nc1)N1CCc2nc(N3C4CCC3CNC4)sc2C1 [Example 165, 1-(2-(3,8-diazabicyclo[3.2.1]octan-8-yl)-6,7-dihydrothiazolo[5,4-c]pyridin-5(4H)-yl)-2-(6-fluoropyridin-3-yl)ethan-1-one]",2%
7,"N#Cc1ccccc1OCC(=O)N1CCc2nc(N3C4CCC3CNC4)sc2C1 [Example 167, 2-(2-(2-(3,8-diazabicyclo[3.2.1]octan-8-yl)-6,7-dihydrothiazolo[5,4-c]pyridin-5(4H)-yl)-2-oxoethoxy)benzonitrile]",19%
8,"COc1cccc(C#N)c1OCC(=O)N1CCc2nc(N3C4CCC3CNC4)sc2C1 [Example 168, 2-(2-(2-(3,8-diazabicyclo[3.2.1]octan-8-yl)-6,7-dihydrothiazolo[5,4-c]pyridin-5(4H)-yl)-2-oxoethoxy)-3-methoxybenzonitrile]",-3%
9,"CC(OC1CCCC1)C(=O)N1CCc2nc(N3C4CCC3CNC4)sc2C1 (centres unmarked) [Example 169, 1-(2-(3,8-diazabicyclo[3.2.1]octan-8-yl)-6,7-dihydrothiazolo[5,4-c]pyridin-5(4H)-yl)-2-(cyclopentyloxy)propan-1-one]",-9%
10,"O=C([C@@H](O)C1CCCC1)N1CCc2nc(N3C4CCC3CNC4)sc2C1 [Example 170, (2S)-1-(2-(3,8-diazabicyclo[3.2.1]octan-8-yl)-6,7-dihydrothiazolo[5,4-c]pyridin-5(4H)-yl)-2-cyclopentyl-2-hydroxyethan-1-one]",5%
11,"COc1cccc(OC)c1OCC(=O)N1CCc2nc(N3C4CCC3CNC4)sc2C1 [Example 172, 1-(2-(3,8-diazabicyclo[3.2.1]octan-8-yl)-6,7-dihydrothiazolo[5,4-c]pyridin-5(4H)-yl)-2-(2,6-dimethoxyphenoxy)ethan-1-one]",10%
12,"O=C(COc1ccccc1C(F)F)N1CCc2nc(N3C4CCC3CNC4)sc2C1 [Example 173, 1-(2-(3,8-diazabicyclo[3.2.1]octan-8-yl)-6,7-dihydrothiazolo[5,4-c]pyridin-5(4H)-yl)-2-(2-(difluoromethyl)phenoxy)ethan-1-one]",-2%
13,"CCC(C)(C)CC(=O)N1CCc2nc(N3C4CCC3CNC4)sc2C1 [Example 174, 1-(2-(3,8-diazabicyclo[3.2.1]octan-8-yl)-6,7-dihydrothiazolo[5,4-c]pyridin-5(4H)-yl)-3,3-dimethylpentan-1-one]",3%

# Same assay, conditions: Mus musculus, mIMCD3, 144 h, 10 μM; mean cyst area, 100% for (DMSO + PGE2) and 0% for DMSO control; 6 days of culture; read-out: % Cyst area after incubation with 10 μM test compound
row,SMILES,activity at 10 µM
1,"COc1ccccc1OCC(=O)N1CCc2nc(N3C4CCC3CNC4)sc2C1 [Example 138, 1-(2-(3,8-diazabicyclo[3.2.1]octan-8-yl)-6,7-dihydrothiazolo[5,4-c]pyridin-5(4H)-yl)-2-(2-methoxyphenoxy)ethan-1-one]",0%
2,"COc1ccccc1CC(=O)N1CCc2nc(N3C4CCC3CNC4)sc2C1 [Example 139, 1-(2-(3,8-diazabicyclo[3.2.1]octan-8-yl)-6,7-dihydrothiazolo[5,4-c]pyridin-5(4H)-yl)-2-(2-methoxyphenyl)ethan-1-one]",-1%
3,"COc1cc(F)ccc1CC(=O)N1CCc2nc(N3C4CCC3CNC4)sc2C1 [Example 140, 1-(2-(3,8-diazabicyclo[3.2.1]octan-8-yl)-6,7-dihydrothiazolo[5,4-c]pyridin-5(4H)-yl)-2-(4-fluoro-2-methoxyphenyl)ethan-1-one]",0%
4,"O=C(Cc1ccnc(F)c1)N1CCc2nc(N3C4CCC3CNC4)sc2C1 [Example 141, 1-(2-(3,8-diazabicyclo[3.2.1]octan-8-yl)-6,7-dihydrothiazolo[5,4-c]pyridin-5(4H)-yl)-2-(2-fluoropyridin-4-yl)ethan-1-one]",-7%
5,"O=C(CCc1ccc(F)nc1)N1CCc2nc(N3C4CCC3CNC4)sc2C1 [Example 142, 1-(2-(3,8-diazabicyclo[3.2.1]octan-8-yl)-6,7-dihydrothiazolo[5,4-c]pyridin-5(4H)-yl)-3-(6-fluoropyridin-3-yl)propan-1-one]",-4%
6,"COc1cc(F)ccc1OCC(=O)N1CCc2nc(N3C4CCC3CNC4)sc2C1 [Example 143, 1-(2-(3,8-diazabicyclo[3.2.1]octan-8-yl)-6,7-dihydrothiazolo[5,4-c]pyridin-5(4H)-yl)-2-(4-fluoro-2-methoxyphenoxy)ethan-1-one]",2%
7,"O=C(Cc1ccc(F)cc1F)N1CCc2nc(N3C4CCC3CNC4)sc2C1 [Example 144, 1-(2-(3,8-diazabicyclo[3.2.1]octan-8-yl)-6,7-dihydrothiazolo[5,4-c]pyridin-5(4H)-yl)-2-(2,4-difluorophenyl)ethan-1-one]",13%
8,"Cc1cc(F)ccc1OCC(=O)N1CCc2nc(N3C4CCC3CNC4)sc2C1 [Example 145, 1-(2-(3,8-diazabicyclo[3.2.1]octan-8-yl)-6,7-dihydrothiazolo[5,4-c]pyridin-5(4H)-yl)-2-(4-fluoro-2-methylphenoxy)ethan-1-one]",17%
9,"CC(C)(C(=O)N1CCc2nc(N3C4CCC3CNC4)sc2C1)C1CCCC1 [Example 146, 1-(2-(3,8-diazabicyclo[3.2.1]octan-8-yl)-6,7-dihydrothiazolo[5,4-c]pyridin-5(4H)-yl)-2-cyclopentyl-2-methylpropan-1-one]",16%
10,"COc1cc(F)ccc1CCC(=O)N1CCc2nc(N3C4CCC3CNC4)sc2C1 [Example 147, 1-(2-(3,8-diazabicyclo[3.2.1]octan-8-yl)-6,7-dihydrothiazolo[5,4-c]pyridin-5(4H)-yl)-3-(4-fluoro-2-methoxyphenyl)propan-1-one]",9%
11,"O=C(COc1ccc(F)cc1F)N1CCc2nc(N3C4CCC3CNC4)sc2C1 [Example 148, 1-(2-(3,8-diazabicyclo[3.2.1]octan-8-yl)-6,7-dihydrothiazolo[5,4-c]pyridin-5(4H)-yl)-2-(2,4-difluorophenoxy)ethan-1-one]",3%
12,"O=C(COC1CCCC1)N1CCc2nc(N3C4CCC3CNC4)sc2C1 [Example 149, 1-(2-(3,8-diazabicyclo[3.2.1]octan-8-yl)-6,7-dihydrothiazolo[5,4-c]pyridin-5(4H)-yl)-2-(cyclopentyloxy)ethan-1-one]",-2%
13,"CC1(C(=O)N2CCc3nc(N4C5CCC4CNC5)sc3C2)CCCC1 [Example 150, (2-(3,8-diazabicyclo[3.2.1]octan-8-yl)-6,7-dihydrothiazolo[5,4-c]pyridin-5(4H)-yl)(1-methylcyclopentyl)methanone]",1%
14,"O=C(N1CCc2nc(N3C4CCC3CNC4)sc2C1)C1(F)CCCC1 [Example 151, (2-(3,8-diazabicyclo[3.2.1]octan-8-yl)-6,7-dihydrothiazolo[5,4-c]pyridin-5(4H)-yl)(1-fluorocyclopentyl)methanone]",5%
15,"N#CC(C(=O)N1CCc2nc(N3C4CCC3CNC4)sc2C1)C1CCCC1 (centres unmarked) [Example 152, 3-(2-(3,8-diazabicyclo[3.2.1]octan-8-yl)-6,7-dihydrothiazolo[5,4-c]pyridin-5(4H)-yl)-2-cyclopentyl-3-oxopropanenitrile]",4%
16,"Cc1cc(CC(=O)N2CCc3nc(N4C5CCC4CNC5)sc3C2)cc(C)n1 [Example 153, 1-(2-(3,8-diazabicyclo[3.2.1]octan-8-yl)-6,7-dihydrothiazolo[5,4-c]pyridin-5(4H)-yl)-2-(2,6-dimethylpyridin-4-yl)ethan-1-one]",31%
17,"CCC(C)(C)C(=O)N1CCc2nc(N3C4CCC3CNC4)sc2C1 [Example 154, 1-(2-(3,8-diazabicyclo[3.2.1]octan-8-yl)-6,7-dihydrothiazolo[5,4-c]pyridin-5(4H)-yl)-2,2-dimethylbutan-1-one]",-13%
18,"O=C(CC1CCC2(CC1)COC2)N1CCc2nc(N3C4CCC3CNC4)sc2C1 [Example 155, 1-(2-(3,8-diazabicyclo[3.2.1]octan-8-yl)-6,7-dihydrothiazolo[5,4-c]pyridin-5(4H)-yl)-2-(2-oxaspiro[3.5]nonan-7-yl)ethan-1-one]",-3%
19,"Cc1cc(F)ccc1CC(=O)N1CCc2nc(N3C4CCC3CNC4)sc2C1 [Example 156, 1-(2-(3,8-diazabicyclo[3.2.1]octan-8-yl)-6,7-dihydrothiazolo[5,4-c]pyridin-5(4H)-yl)-2-(4-fluoro-2-methylphenyl)ethan-1-one]",0%
